Experimental data taken from ChEMBL document CHEMBL5465560, “Selectivity Literature for EUbOPEN Chemogenomic Library” (2024).
Each block holds one molecule with its values, some of them ahead of it.

Experiments:
[1] = biological target: T1, Dual specificity mitogen-activated protein kinase kinase 4 (Homo sapiens) (UniProt P45985); test: Selectivity interaction (KinomeScan (DiscoverX)) EUB0000618a MAP2K4; details: at 10 µM
T1 sequence (whole entry): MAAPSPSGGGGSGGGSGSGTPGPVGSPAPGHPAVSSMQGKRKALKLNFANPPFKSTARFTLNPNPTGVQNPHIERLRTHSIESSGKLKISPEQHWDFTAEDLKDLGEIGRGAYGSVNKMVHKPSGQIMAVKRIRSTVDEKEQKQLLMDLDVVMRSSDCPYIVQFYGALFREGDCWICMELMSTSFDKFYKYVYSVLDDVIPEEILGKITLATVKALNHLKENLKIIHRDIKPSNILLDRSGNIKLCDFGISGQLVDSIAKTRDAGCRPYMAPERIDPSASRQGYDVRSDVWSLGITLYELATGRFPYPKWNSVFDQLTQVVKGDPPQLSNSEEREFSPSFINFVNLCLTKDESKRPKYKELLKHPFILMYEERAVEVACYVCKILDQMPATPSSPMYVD

[2] = biological target: Myosin-IIIa (Homo sapiens) (UniProt Q8NEV4); test: Selectivity interaction (KinomeScan (DiscoverX)) EUB0000045b MYO3A
Myosin-IIIa (Homo sapiens), sequence (Q8NEV4 whole entry): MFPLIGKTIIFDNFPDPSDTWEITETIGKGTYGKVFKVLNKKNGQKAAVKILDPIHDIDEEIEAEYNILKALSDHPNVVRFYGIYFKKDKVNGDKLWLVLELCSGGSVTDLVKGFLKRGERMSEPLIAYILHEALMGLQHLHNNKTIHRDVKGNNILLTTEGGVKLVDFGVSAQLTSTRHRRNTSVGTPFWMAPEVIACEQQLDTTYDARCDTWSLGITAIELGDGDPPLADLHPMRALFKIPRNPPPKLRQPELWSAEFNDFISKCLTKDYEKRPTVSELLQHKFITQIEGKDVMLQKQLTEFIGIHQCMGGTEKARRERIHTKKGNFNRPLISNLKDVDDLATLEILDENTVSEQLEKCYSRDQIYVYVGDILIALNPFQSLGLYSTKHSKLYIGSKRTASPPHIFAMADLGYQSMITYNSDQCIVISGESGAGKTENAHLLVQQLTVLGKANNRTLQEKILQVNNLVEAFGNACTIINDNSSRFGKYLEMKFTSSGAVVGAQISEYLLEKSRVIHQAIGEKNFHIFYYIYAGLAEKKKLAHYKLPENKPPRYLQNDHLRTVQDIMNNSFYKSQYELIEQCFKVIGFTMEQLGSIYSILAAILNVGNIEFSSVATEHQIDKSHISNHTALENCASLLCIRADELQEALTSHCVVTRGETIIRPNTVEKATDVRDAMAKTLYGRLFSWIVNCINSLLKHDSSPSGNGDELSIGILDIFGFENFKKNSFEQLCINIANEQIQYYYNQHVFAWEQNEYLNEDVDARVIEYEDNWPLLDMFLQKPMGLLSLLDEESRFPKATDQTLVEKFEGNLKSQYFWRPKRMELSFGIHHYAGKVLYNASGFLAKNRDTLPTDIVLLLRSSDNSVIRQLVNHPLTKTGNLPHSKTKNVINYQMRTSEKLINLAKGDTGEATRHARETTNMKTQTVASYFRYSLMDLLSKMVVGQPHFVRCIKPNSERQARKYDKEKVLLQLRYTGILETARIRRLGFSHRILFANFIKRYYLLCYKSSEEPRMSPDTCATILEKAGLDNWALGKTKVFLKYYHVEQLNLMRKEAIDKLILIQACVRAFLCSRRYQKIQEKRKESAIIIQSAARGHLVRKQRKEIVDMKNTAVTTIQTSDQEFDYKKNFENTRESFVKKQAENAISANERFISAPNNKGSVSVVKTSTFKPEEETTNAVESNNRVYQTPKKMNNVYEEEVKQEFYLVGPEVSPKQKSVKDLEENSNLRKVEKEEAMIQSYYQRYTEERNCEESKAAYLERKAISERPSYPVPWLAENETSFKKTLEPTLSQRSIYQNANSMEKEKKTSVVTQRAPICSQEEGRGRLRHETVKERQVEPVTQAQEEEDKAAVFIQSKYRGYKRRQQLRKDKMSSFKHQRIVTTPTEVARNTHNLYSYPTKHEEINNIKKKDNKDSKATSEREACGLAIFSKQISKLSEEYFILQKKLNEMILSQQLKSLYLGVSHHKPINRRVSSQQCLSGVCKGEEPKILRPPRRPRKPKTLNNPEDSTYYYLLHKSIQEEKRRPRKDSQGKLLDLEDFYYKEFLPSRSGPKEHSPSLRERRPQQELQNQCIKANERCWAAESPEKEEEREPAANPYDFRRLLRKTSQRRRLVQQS

[3] = biological target: Calcium/calmodulin-dependent protein kinase type II subunit alpha (Homo sapiens, UniProt Q9UQM7); test: Selectivity interaction (KinomeScan (DiscoverX)) EUB0000595a CAMK2A; details: at 10 µM
Calcium/calmodulin-dependent protein kinase type II subunit alpha, sequence (Q9UQM7 whole entry): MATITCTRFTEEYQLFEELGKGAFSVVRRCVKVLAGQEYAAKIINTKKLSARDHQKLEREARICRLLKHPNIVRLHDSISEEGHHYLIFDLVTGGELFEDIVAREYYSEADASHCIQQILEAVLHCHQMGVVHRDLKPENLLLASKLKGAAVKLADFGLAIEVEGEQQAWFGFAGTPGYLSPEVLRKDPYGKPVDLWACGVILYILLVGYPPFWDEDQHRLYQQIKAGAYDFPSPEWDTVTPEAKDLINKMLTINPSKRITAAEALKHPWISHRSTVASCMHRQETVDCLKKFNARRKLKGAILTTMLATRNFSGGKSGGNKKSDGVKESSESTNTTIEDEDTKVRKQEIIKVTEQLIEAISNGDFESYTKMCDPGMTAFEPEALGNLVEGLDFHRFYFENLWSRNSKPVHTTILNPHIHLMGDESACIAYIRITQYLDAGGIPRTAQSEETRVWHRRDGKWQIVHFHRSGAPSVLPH

[4] = biological target: T2, Histone-lysine N-methyltransferase SMYD3 (Homo sapiens) (UniProt Q9H7B4); details: at 1 µM
T2 sequence (whole entry): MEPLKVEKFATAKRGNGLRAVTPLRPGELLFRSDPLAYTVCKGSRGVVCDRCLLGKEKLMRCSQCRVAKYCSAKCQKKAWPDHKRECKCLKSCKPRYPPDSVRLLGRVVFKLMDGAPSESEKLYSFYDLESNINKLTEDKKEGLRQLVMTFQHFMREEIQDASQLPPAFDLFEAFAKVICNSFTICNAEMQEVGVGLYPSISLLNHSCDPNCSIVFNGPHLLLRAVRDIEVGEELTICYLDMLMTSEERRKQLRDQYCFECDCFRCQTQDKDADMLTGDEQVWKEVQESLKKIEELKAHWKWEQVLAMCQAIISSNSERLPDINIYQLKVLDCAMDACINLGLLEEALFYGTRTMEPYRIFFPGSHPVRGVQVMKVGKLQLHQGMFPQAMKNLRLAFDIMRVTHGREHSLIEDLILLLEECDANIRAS

[5] = biological target: Tyrosine-protein kinase FRK (Homo sapiens) (UniProt P42685); details: at 10 µM
Tyrosine-protein kinase FRK (Homo sapiens), sequence (P42685 whole entry): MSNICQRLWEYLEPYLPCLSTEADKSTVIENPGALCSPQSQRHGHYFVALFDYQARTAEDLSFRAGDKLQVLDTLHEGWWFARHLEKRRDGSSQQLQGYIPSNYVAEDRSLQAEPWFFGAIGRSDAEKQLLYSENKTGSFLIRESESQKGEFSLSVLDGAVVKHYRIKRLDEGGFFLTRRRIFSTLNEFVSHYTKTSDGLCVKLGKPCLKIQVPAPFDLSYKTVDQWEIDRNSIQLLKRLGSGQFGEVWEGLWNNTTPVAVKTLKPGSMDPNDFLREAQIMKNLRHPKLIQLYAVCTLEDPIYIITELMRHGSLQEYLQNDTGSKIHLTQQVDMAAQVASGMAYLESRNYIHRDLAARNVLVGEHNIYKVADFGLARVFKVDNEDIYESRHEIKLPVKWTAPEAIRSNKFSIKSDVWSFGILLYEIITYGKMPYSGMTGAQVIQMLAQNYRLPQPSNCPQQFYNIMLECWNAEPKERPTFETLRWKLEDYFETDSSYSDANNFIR

[6] = biological target: T3, Serine/threonine-protein kinase PLK4 (Homo sapiens) (UniProt O00444); test: Selectivity interaction (LanthaScreen Eu Kinase Binding Assay) EUB0001632a PLK4; details: at 10 µM
T3 sequence (whole entry): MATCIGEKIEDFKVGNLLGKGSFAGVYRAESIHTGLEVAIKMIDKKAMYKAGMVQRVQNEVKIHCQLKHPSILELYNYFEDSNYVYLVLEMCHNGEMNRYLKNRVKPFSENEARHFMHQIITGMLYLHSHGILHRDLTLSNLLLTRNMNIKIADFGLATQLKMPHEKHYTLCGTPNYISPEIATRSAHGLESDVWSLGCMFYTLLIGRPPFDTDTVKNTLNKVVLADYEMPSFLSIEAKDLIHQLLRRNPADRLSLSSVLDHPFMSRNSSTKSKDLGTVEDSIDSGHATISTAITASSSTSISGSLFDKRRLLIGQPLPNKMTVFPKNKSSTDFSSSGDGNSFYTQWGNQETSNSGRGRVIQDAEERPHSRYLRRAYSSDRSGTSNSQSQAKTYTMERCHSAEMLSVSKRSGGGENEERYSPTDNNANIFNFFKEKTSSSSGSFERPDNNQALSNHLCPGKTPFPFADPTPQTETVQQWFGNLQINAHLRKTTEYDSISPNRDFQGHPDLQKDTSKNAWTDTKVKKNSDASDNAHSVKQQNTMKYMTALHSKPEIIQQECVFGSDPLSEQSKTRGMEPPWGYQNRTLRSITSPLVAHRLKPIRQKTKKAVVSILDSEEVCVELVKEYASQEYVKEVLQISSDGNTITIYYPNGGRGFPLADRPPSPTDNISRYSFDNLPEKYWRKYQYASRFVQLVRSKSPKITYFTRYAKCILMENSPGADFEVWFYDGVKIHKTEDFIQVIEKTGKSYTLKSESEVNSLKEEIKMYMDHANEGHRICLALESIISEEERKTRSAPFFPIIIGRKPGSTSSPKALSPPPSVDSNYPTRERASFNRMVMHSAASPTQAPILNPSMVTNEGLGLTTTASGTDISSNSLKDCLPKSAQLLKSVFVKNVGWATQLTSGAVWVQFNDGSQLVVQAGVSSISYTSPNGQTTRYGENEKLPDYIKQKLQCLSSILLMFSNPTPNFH

[7] = biological target: T4, Serine/threonine-protein kinase TAO3 (Homo sapiens) (UniProt Q9H2K8); test: Selectivity interaction (LanthaScreen Eu Kinase Binding Assay) EUB0001632a TAOK3; details: at 10 µM
T4 sequence (whole entry): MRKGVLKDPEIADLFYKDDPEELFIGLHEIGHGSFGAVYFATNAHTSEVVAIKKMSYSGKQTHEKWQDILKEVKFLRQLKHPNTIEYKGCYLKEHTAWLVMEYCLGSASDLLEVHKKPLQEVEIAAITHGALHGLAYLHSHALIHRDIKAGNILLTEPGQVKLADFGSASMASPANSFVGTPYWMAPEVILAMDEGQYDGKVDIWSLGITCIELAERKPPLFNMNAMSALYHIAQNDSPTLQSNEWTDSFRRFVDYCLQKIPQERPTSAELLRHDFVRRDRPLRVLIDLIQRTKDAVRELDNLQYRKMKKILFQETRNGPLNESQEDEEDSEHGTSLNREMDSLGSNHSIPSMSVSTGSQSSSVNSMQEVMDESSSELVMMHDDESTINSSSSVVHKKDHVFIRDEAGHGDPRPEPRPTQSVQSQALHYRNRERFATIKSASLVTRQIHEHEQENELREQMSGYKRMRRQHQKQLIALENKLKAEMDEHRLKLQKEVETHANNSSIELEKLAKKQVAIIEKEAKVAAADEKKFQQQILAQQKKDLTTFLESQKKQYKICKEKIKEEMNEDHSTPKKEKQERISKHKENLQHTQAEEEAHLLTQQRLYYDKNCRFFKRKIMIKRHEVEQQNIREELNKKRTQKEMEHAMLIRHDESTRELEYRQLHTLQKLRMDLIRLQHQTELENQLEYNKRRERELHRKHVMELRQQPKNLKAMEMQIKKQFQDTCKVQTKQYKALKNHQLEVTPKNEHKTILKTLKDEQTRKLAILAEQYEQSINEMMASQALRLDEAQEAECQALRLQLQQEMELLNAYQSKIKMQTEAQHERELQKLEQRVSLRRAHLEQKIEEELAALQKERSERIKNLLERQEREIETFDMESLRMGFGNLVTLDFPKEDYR

Compound: O[C@H]1CC[C@H](Nc2ncc3nc(Nc4c(F)cc(F)cc4F)n([C@H]4CCOC4)c3n2)CC1
% of control [1]: 27%

Compound: C=CC(=O)Nc1cc(-n2c(=O)ccc3cnc4ccc(-c5ccc(NS(C)(=O)=O)cc5)cc4c32)ccc1C
% of control ([2]; at 1 µM): 100%
% of control ([2]; at 10 µM): 85%

Compound: COCC(=O)NC/C=C/c1ccc2ncnc(Nc3ccc(Oc4ccc(C)nc4)c(C)c3)c2c1 [CP-724714]
% of control [3]: 93%

% activity [4]: > 85%
Compound: CNCCN1CCC(c2cc(CN(C)C(=O)c3cccc(Oc4ccccc4)c3)ccn2)CC1

Compound: Cc1cc([C@@H](C)Nc2ccccc2C(=O)O)c2nc(N3CCOCC3)cc(=O)n2c1 [AZD-6482]
% of control [5]: 83%

% of inhibition [6]: 0.376%
% of inhibition [7]: 7.54%
Compound: Cn1cc(-n2cnc3c(NCc4nc5cc(Cl)c(Cl)cc5[nH]4)nc(N4CCOCC4)nc32)cn1
